Reference: patent publication US20230232863A1, “FEED COMPOSITION FOR TENEBRIO MOLITOR” (priority 2022, published 2023)

Legend:
[1] = test system: Tenebrio molitor; assay: Mealworm larvae feeding: survival rate; type: in vivo; conditions: alloferon peptide of 1 ppm
Protocol: The feeding gelatin was made with combining 200 g of distilled water and 4 g of paper gelatin (Gelita H G, Eberbach, Germany), and solidified in the refrigerator using an ice cubic stick tray with the lid closed. The same process was performed for the experimental group of gelatin containing alloferon peptide (Biomatik, Del., USA) of 1 ppm. The tray had 10 slots to make each gelatin of approximately 20 g gelatin cubic and kept in the refrigerator with the lids closed to minimize loss of moisture.
Yellow mealworms (Tenebrio molitor) were provided by a private local insect breeder (Mealworm village, Seoul, Korea). Mealworms larvae were divided into three different dietary groups: (1) About 500 larvae were placed in a plastic container (18.5×12×5.5 cm) with 30 g wheat bran only (control group), (2) About 500 larvae with wheat bran supplemented with 20 g gelatin three times per week (positive control group), (3) About 500 larvae with wheat bran supplemented with 20 g gelatin containing alloferon peptide of 1 ppm three times per week (experimental group). […]
Mealworms pupae and dead larvae were counted and removed daily from each experimental group, and the numbers were recorded for the evaluation of survival rate. The average weight of the mealworm larvae was recorded every week with 20 randomly selected mealworms.

[2] = test system: Tenebrio molitor; assay: Mealworm larvae feeding: development time (larvae-pupae transformation); type: in vivo; conditions: days until 50% of larvae changed into pupae; laboratory scale; alloferon 1 ppm
Protocol: The feeding gelatin was made with combining 200 g of distilled water and 4 g of paper gelatin (Gelita H G, Eberbach, Germany), and solidified in the refrigerator using an ice cubic stick tray with the lid closed. The same process was performed for the experimental group of gelatin containing alloferon peptide (Biomatik, Del., USA) of 1 ppm. The tray had 10 slots to make each gelatin of approximately 20 g gelatin cubic and kept in the refrigerator with the lids closed to minimize loss of moisture. Yellow mealworms (Tenebrio molitor) were provided by a private local insect breeder (Mealworm village, Seoul, Korea). Mealworms larvae were divided into three different dietary groups: (1) About 500 larvae were placed in a plastic container (18.5×12×5.5 cm) with 30 g wheat bran only (control group), (2) About 500 larvae with wheat bran supplemented with 20 g gelatin three times per week (positive control group), (3) About 500 larvae with wheat bran supplemented with 20 g gelatin containing alloferon peptide of 1 ppm three times per week (experimental group). Two replicated containers per each dietary group were set up, after which the containers were placed in a climate chamber at 25° C. with a relative humidity of 60%. Development time of mealworms was considered to be the number of days until 50% of mealworms larvae changed into pupae stage.

[3] = test system: Sf9 insect cells; assay: In vitro cell proliferation analysis by PrestoBlue assay; type: cell-based; conditions: 300 nM alloferon; measured at 0, 2, 4 and 6 days
Protocol: The proliferation of Sf9 insect cells was analyzed by the PrestoBlue assay (Invitrogen, CA, USA). 8,000 cells/well were prepared in 96 well plates (Sigma-Aldrich, MI, USA). After cells were seeded, the cells were incubated with PBS with alloferon (300 nM). The control group received PBS without aloferon. At 0, 2, 4, and 6 days after applying 10% PrestoBlue, the color switchover of resazurin to resorufin (Absorbance 570 nm/600 nm) was measured with the microplate reader (BioTeck, Vt., USA).

[4] = test system: Phenoloxidase; assay: Phenoloxidase activity analysis in homogenized larvae tissue; type: in vivo, Tenebrio molitor; conditions: after alloferon diet
Protocol: For various analysis of biologic response, harvested mealworms larvae were killed by freezing and then all mealworms stored at −20° C. Penoloxidase activity in homogenized larvae tissue was analyzed with a 96 well microplate reader using catechol as the substrate. After the sample was incubated for 37° C. for 10 min, the 420 nm absorbance was measured with a microplate spectrophotometer (Bio-Rad, CA, USA). The essay was performed with three replicates and each experiment was repeated three times. The penoloxidase activity was expressed as units of enzyme activity per mg protein.

H-His-Gly-Val-Ser-Gly-His-Gly-Gln-His-Gly-Val-His-Gly-OH (H-HGVSGHGQHGVHG-OH) [alloferon, immunomodulatory peptide (Biomatik) first isolated from hemolymph of Calliphora vicina maggots]
increase of survival rate [1]: over 61.8% | development time shortened compared to wheat bran diet control [2]: 40.3% | cell proliferation of Sf9 cells [3]: significantly boosted cell proliferation of Sf9 cells only after 6 days | phenoloxidase expression/activity in mealworm tissue [4]: increasing the expression of penoloxidase
